# Where “and” joins values, the source holds several entries; their conditions need not be identical. Equal entries are not always repeated.
# T1: human CXCR2 (IL8RB) chemokine receptor (Homo sapiens, UniProt P25025)
# T1 construct: host or cells: CHO cells
# T1 sequence (P25025 1-360): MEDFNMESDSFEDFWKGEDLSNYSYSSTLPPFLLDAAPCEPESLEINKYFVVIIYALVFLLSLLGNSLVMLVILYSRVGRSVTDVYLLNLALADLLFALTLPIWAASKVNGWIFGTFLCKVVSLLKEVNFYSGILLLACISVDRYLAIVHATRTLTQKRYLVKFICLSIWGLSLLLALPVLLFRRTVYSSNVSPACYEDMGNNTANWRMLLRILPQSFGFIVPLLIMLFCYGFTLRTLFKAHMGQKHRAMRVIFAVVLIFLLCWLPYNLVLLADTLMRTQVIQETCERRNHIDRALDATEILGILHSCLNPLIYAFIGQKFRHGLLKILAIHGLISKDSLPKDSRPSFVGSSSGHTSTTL
# T2: human CXCR1 (IL8RA) chemokine receptor (Homo sapiens, UniProt P25024)
# T2 construct: host or cells: CHO cells
# T2 sequence (P25024 1-350): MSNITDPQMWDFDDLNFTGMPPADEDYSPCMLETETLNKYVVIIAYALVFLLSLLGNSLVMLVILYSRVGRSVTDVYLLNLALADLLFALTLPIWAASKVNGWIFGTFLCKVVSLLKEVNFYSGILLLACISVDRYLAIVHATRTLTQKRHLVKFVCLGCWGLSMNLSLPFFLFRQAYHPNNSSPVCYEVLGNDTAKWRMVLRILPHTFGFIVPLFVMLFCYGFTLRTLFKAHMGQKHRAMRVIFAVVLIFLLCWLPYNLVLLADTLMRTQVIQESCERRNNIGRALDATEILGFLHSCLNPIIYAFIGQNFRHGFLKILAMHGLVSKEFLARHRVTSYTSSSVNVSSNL
# T3: human neuropeptide Y1 (NPY1) receptors (Homo sapiens, UniProt P25929)
# T3 construct: host or cells: SK-N-MC (human neuroblastoma) cells
# T3 sequence (P25929 1-384): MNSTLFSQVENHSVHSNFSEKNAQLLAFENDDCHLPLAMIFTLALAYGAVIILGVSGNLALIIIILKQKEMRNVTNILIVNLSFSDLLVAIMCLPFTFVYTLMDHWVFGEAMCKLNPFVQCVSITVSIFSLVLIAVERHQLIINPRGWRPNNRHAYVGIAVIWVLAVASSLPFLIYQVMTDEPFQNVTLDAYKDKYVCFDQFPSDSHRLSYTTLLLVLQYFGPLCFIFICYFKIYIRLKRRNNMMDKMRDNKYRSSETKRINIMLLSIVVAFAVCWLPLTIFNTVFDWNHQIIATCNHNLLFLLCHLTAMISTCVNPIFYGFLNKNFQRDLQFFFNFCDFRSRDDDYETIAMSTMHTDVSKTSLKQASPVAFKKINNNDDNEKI
# B1: NAP-2: Neutrophil Activating Peptide-2 (protein, UniProt P02775 59-128, looked up)
# Neutrophil-activating peptide …: AELRCMCIKTTSGIHPKNIQSLEVIGKGTHCNQVEVIATLKDGRKICLDPDAPRIKKIVQKKLAGDESAD
# modifications: Neutrophil-activating peptide 2
# How the values were obtained:
# [1] = target: T1, human CXCR2 (IL8RB) chemokine receptor; assay: Panlabs CXCR2 filtermat binding assay ([125I]Interleukin-8); conditions: 1 h, screened at 10 μM, read-out: CXCR2 specific binding (%)
# Procedure: Selected compounds were screened by Panlabs (Bothell Wash.) using their CXCR2 filtermat binding assay. This assay measures binding of [^125I]Interleukin-8 to human interleukin-CXCR2 (IL8RB) receptors and is also described in Ahuja, S. K. and Murphy, P. M., J. Biol. Chem. 271:20545–20550, 1996. In summary, CHO cells stably transfected with a plasmid encoding the human CXCR2 (IL8RB) chemokine receptor were used to prepare membranes in modified HEPES pH 7.4 buffer. A 2 μg aliquot of membrane was incubated with 15 pM [^125I]Interleukin-8 for 60 minutes at room temperature. Non-specific binding was estimated in the presence of 10 nM interleukin-8. Membranes were filtered and washed 3 times and the filters were counted to determine [^125I]Interleukin-8 specifically bound. Compounds were screened at 10 μM and results are reported in terms of Specific Binding (%) in Tables 3–5.
# This assay measures binding of [^125I]Interleukin-8 to human interleukin-CXCR2 (IL8RB) receptors. See Ahuja, S. K. and Murphy, P. M., J. Biol. Chem. 271: 20545–20550, 1996, for details. In brief, CHO cells stably transfected with a plasmid encoding the human CXCR2 (IL8RB) chemokine receptor were used to prepare membranes in modified HEPES pH 7.4 buffer using standard techniques. A 2 μg aliquot of membrane was incubated with 15 pM [^125I]Interleukin-8 for 60 minutes at room temperature. Non-specific binding was estimated in the presence of 10 nM interleukin-8. Membranes were filtered and washed 3 times and the filters were counted to determine [^125I]Interleukin-8 specifically bound. Compounds were screened at 10 μM, with the results reported in Table 6 (row titled “CXCR2”) in terms of specific binding (%).
# somatostatin receptors = assay: Somatostatin assay ([125I]tyr1 Somatostatin binding, AtT-20 membranes); set-up: species or system mouse; conditions: screened at 10 μM; Panlabs
# Procedure: This assay measures binding of [^125I]tyr^1 Somatostatin to somatostatin receptors. See Thermos, K. and Reisine, T. Mol. Pharmacol. 33:370–377, 1988, and Srikant, C. B. and Heisler, S., Endocrinology 117:271–278, 1985. In brief, AtT-20 (mouse pituitary) cells were used to prepare membranes in modified Tris-HCl pH 7.5 buffer using standard techniques. A 200 μg aliquot of membrane was incubated with 0.04 nM [^125I]tyr^1 Somatostatin for 60 minutes at 25° C. Non-specific binding was estimated in the presence of 1 μM somatostatin-14. Membranes were filtered and washed 3 times and the filters were counted to determine [^125I]tyr^1 Somatostatin specifically bound. Compounds were screened at 10 μM, with the data reported in Table 6 (row titled “Somat.”) in terms of specific binding (%).
# [2] = target: T2, human CXCR1 (IL8RA) chemokine receptor; assay: CXCR1 assay ([125I]Interleukin-8 binding); conditions: screened at 10 μM; Panlabs; read-out: CXCR1 specific binding (%)
# Procedure: This assay measures binding of [^125I]Interleukin-8 to human interleukin-CXCR1 (ILR8A) receptors. See Ahuja, S. K. and Murphy, P. M. J. Biol. Chem. 271:20545–20550, 1996 for details. In brief, CHO cells stably transfected with a plasmid encoding the human CXCR1 (IL8RA) chemokine receptor were used to prepare membranes in modified HEPES pH 7.4 buffer using standard techniques. A 5 μg aliquot of membrane was incubated with 8 pM [^125I]Interleukin-8 for 60 minutes at room temperature. Non-specific binding was estimated in the presence of 10 nM interleukin-8. Membranes were filtered and washed 3 times and the filters were counted to determine [^125I]Interleukin-8 specifically bound. Compounds were screened at 10 μM, with the data reported in Table 6 (row titled “CXCR1”) in terms of specific binding (%).
# [3] = target: T3, human neuropeptide Y1 (NPY1) receptors; assay: NPY1 assay ([125I]Peptide YY binding, SK-N-MC cells); conditions: screened at 10 μM; Panlabs
# Procedure: This assay measures binding of [^125I]Peptide YY (PYY) to human neuropeptide Y1 (NPY1) receptors. See Fuhlendorff, J., et al. Proc. Natl Acad. Sci. USA 87:182–186, 1990 and Sheikh, S. P., et al. J. Biol. Chem. 264: 6648–6654, 1989. In brief, SK-N-MC (human neuroblastoma) cells were used in modified HBSS pH 7.4 buffer using standard techniques. The cells (10^6) were incubated with 12.5 pM [^125I]PYY for 45 minutes at 25° C. […] Cells were centrifuged and pellets were counted to determine [^125I]PYY specifically bound. Compounds were screened at 10 μM, with the results shown in Table 6 (row titled “NPY1”), reported in terms of specific binding (%).
# [4] = target: T4, human chemokine CCR5 receptor (Homo sapiens, UniProt P51681); assay: CCR5 assay ([125I]MIP-1β binding); conditions: 2 h; screened at 10 μM; Panlabs; read-out: CCR5 specific binding (%)
# T4 construct: host or cells: CHO-K1-p242-CCR5 cells
# T4 sequence (P51681 whole entry): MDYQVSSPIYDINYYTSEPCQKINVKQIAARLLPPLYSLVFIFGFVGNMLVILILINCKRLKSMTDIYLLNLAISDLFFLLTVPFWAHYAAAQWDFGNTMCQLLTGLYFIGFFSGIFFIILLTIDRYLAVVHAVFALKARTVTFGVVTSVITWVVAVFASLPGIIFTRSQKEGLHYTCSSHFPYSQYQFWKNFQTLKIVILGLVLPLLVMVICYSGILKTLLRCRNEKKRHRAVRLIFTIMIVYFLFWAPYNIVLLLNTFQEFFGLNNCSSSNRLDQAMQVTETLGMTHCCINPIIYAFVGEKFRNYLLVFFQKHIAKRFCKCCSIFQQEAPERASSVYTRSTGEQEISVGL
# Procedure: This assay measures the binding of [^125I]MIP-1β to human chemokine CCR5 receptors. See Samson, M., et al., J. Biol. Chem. 272:24934–24941, 1997. In brief, CHO-K1-p242-CCR5 cells stably transfected with a plasmid encoding the human chemokine CCR5 receptor were used to prepare membranes in modified HEPES buffer at pH 7.4 using standard techniques. A 1 μg aliquot was incubated with 0.1 nM [^125I]MIP-1β for 120 minutes at 25° C. Non-specific binding was estimated in the presence of 0.1 μM MIP-1β. Membranes were filtered and washed 3 times and filters were counted to determine [^125I]MIP-1β specifically bound. Compounds were screened at 10 μM. The data obtained from this assay is reported in Table 6 (row titled “CCR5”), in terms of specific binding (%).
# [5] = target: T1, human CXCR2 (IL8RB) chemokine receptor; conditions: CXCR2 reference data; cited from earlier work
# [6] = target: T2, human CXCR1 (IL8RA) chemokine receptor; conditions: CXCR1 reference data; cited from earlier work
molecule,measurement,setting,value
O=C(Nc1ccc(F)cc1)c1ccc(Cl)[n+]([O-])c1 [drawing 128],remaining activity at 10 µM,[1],> 40%
same,Somat. specific binding (%),somatostatin receptors,* (“*” indicates a value of less than or equal to 40)
same,remaining activity at 10 µM,[2],> 40%
same,NPY1 specific binding (%),[3],* (“*” indicates a value of less than or equal to 40)
CS(=O)(=O)c1ccc(C(=O)Nc2ccc(F)cc2)c[n+]1[O-] [drawing 129],remaining activity at 10 µM,[1],> 40%
same,Somat. specific binding (%),somatostatin receptors,** (“**” indicates a value of greater than 40)
same,remaining activity at 10 µM,[4],> 40%
same,remaining activity at 10 µM,[2],> 40%
same,NPY1 specific binding (%),[3],** (“**” indicates a value of greater than 40)
O=C(Nc1ccc(F)cc1)c1ccc(S(=O)(=O)c2ccccc2)[n+]([O-])c1 [drawing 130],remaining activity at 10 µM,[1],> 40%
same,Somat. specific binding (%),somatostatin receptors,* (“*” indicates a value of less than or equal to 40)
same,remaining activity at 10 µM,[4],≤ 40%
same,remaining activity at 10 µM,[2],> 40%
same,NPY1 specific binding (%),[3],* (“*” indicates a value of less than or equal to 40)
CCS(=O)(=O)c1ccc(C(=O)Nc2ccc(F)cc2)c[n+]1[O-] [drawing 131],remaining activity at 10 µM,[1],> 40%
same,Somat. specific binding (%),somatostatin receptors,* (“*” indicates a value of less than or equal to 40)
same,remaining activity at 10 µM,[4],> 40%
same,remaining activity at 10 µM,[2],≤ 40%
same,NPY1 specific binding (%),[3],** (“**” indicates a value of greater than 40)
CCCS(=O)(=O)c1ccc(C(=O)Nc2ccc(F)cc2)c[n+]1[O-] [drawing 132],remaining activity at 10 µM,[1],> 40%
same,Somat. specific binding (%),somatostatin receptors,* (“*” indicates a value of less than or equal to 40)
same,remaining activity at 10 µM,[4],> 40%
same,remaining activity at 10 µM,[2],≤ 40%
same,NPY1 specific binding (%),[3],** (“**” indicates a value of greater than 40)
O=C(Nc1ccc(F)cc1)c1ccc(S(=O)(=O)Cc2ccccc2)[n+]([O-])c1 [drawing 133],remaining activity at 10 µM,[1],> 40%
same,Somat. specific binding (%),somatostatin receptors,* (“*” indicates a value of less than or equal to 40)
same,remaining activity at 10 µM,[4],≤ 40%
same,remaining activity at 10 µM,[2],≤ 40%
same,NPY1 specific binding (%),[3],* (“*” indicates a value of less than or equal to 40)
O=C(Nc1ccc(F)cc1)c1ccc(S(=O)(=O)C2CCCC2)[n+]([O-])c1 [drawing 134],remaining activity at 10 µM,[1],> 40%
same,Somat. specific binding (%),somatostatin receptors,* (“*” indicates a value of less than or equal to 40)
same,remaining activity at 10 µM,[4],> 40%
same,remaining activity at 10 µM,[2],≤ 40%
same,NPY1 specific binding (%),[3],* (“*” indicates a value of less than or equal to 40)
O=C(Nc1ccc(F)c(F)c1)c1ccc(Cl)[n+]([O-])c1 [drawing 135],remaining activity at 10 µM,[1],> 40%
same,remaining activity at 10 µM,[4],≤ 40%
same,remaining activity at 10 µM,[2],≤ 40%
O=C(Nc1ccc(F)cc1)c1cc(Cl)c(Cl)[n+]([O-])c1 [drawing 136],remaining activity at 10 µM,[1],> 40%
same,Somat. specific binding (%),somatostatin receptors,* (“*” indicates a value of less than or equal to 40)
same,remaining activity at 10 µM,[4],≤ 40%
same,remaining activity at 10 µM,[2],> 40%
GROα (or MGSA): Growth Regulatory Oncogene α; Melanoma Growth Stimulatory Activity; CXC chemokine,IC50,[5],0.098 nM
same,Ki,[5],0.098 nM and 0.068 nM
same,nH,[5],0.9
same,IC50,[6],> 10000 nM
Interleukin-8: CXC chemokine; standard reference agent used in CXCR1 and CXCR2 binding assays,IC50,[5],0.035 nM
same,Ki,[5],0.024 nM
same,nH,[5],0.7
same,IC50,[6],0.035 nM
same,Ki,[6],0.007 nM
same,nH,[6],1.0
B1,IC50,[5],3.1 nM
same,Ki,[5],2.2 nM
same,nH,[5],0.6
same,IC50,[6],> 10000 nM

# From patent US7141590B2, “Pharmaceutical uses and synthesis of nicotinanilide-N-oxides” (UCB SA, priority 2000, dated 2006)
